According to patent US11702430B2, “Aza-benzothiophene compounds as STING agonists” (Merck Sharp & Dohme LLC, priority 2018, dated 2023):

Key:
[1] = tested on: IFN-β secretion in THP1 cells; assay: IFN-β secretion in THP1 cell culture (5 h); type: cell-based; settings: Homo sapiens, THP-1, 5 h, 30 μM compound, cGAMP at 30 μM set at 100%, read-out: % Effect at 30 μM relative to 2′3′-cGAMP
Procedure: The ability of compounds to stimulate the secretion of interferon-beta from THP1 cells was measured using a human IFN-β AlphaLISA kit (Perkin Elmer, Cat. No. AL265F). The basic protocol is as follows:
A Labcyte Echo 550 acoustic dispenser was used to transfer 120 nL of compound dissolved in DMSO into the wells of an empty, sterile 384-well microplate, (Corning, Cat. No. 3712). THP1 cells (American Type Culture Collection, Cat. No. TIB202) previously frozen in Recovery Medium (Life Technologies, Cat. No. 12648-010) were thawed and immediately diluted 10-fold into 37° C. assay medium (RPMI 1640+L-Glutamine & phenol red, Life Technologies, Cat. No. 11875-085; 0.5% heat inactivated fetal bovine serum, Sigma Aldrich, Cat. No. F4135; 1 mM Sodium Pyruvate, Life Technologies, Cat. No. 11360-070; lx non-essential amino acids; Life Technologies, Cat. No. 11140-050). The cell viability and count was ascertained using a Beckman Coulter V-Cell XR cell counter. The cells suspension was centrifuged at 200×g for 5 min at RT. Cells were resuspended to a density of 0.8×10^6/mL in 37° C. assay medium. Subsequent liquid transfers were performed using either a Matrix electronic multichannel pipette or an Agilent Bravo Automated Liquid Handling Platform.
The assay was started by dispensing 404, of the previously prepared cell suspension into the wells of the plate containing compounds. After 5 h incubation at 37° C., 5% CO2 in a humidified atmosphere, the plate of cells and compounds was centrifuged at 200×g for 5 min at RT. From each well, 54, of supernatant was transferred into corresponding wells of a white 384-well plate (Perkin Elmer, Cat. No. 6005620). To these supernatant-containing wells was added 10 μL of 5× Anti-Analyte Acceptor beads (50 μg/mL of AlphaLISA HiBlock Buffer) and incubated for 30 min at RT while shaking on an orbital plate shaker. To each well was added 104, of 5× Biotinylated Antibody Anti-analyte (5 nM in AlphaLISA HiBlock Buffer) and incubated on an orbital plate shaker for 60 min at RT or overnight at 4° C. To each well was added 254, of 2× SA-Donor beads (80 μg/mL in AlphaLISA HiBlock Buffer) and incubated for 30-45 min at RT in the dark while shaking on an orbital plate shaker. The plate was then read on a Perkin Elmer Envision (λex=680 nm, λem=[…]). The percent effect of the AlphaLISA signal at each compound concentration was calculated based on 30 uM cGAMP positive controls and 0.3% DMSO negative controls. The plot of percent effect versus the log of compound concentration was fit with a 4-parameter concentration response equation to calculate EC50 values. The test compounds were tested at concentrations 30000, 10000, 3333, 1111, 370.4, 123.4, 41.2, 13.7, 4.6, and 1.5 nM with 0.3% residual DMSO. The control compound, cGAMP was tested at concentrations 100000, 33333, 11111, 3704, 1235, 412, 137, 46, and 15 nM with 0.3% residual DMSO.

full-length HAQ STING = biological target: T1, full-length HAQ STING (Homo sapiens, UniProt Q86WV6, G230A/H232R/R293Q/R71H); assay: 3H-cGAMP filtration binding assay (HAQ STING); settings: for EC50: competition with tritiated cGAMP ligand, HAQ STING membrane
T1 construct: made in house; host or cells: Trichoplusia ni (Hi-Five) insect cells, baculovirus; crude membrane preparation
T1 sequence (Q86WV6 with tags, fused parts or gaps R71H/G230A/H232R/R293Q): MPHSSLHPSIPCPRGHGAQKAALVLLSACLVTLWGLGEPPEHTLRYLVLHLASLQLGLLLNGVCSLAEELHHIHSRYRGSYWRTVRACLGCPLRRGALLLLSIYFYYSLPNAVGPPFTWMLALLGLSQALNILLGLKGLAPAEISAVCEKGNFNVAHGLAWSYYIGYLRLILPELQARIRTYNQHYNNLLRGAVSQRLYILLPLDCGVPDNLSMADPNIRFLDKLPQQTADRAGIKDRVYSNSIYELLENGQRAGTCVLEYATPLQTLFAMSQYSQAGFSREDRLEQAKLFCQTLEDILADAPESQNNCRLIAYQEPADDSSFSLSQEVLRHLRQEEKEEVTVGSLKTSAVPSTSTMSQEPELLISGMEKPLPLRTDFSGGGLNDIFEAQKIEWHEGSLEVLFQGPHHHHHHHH
Description: The ability of compounds to bind STING is quantified by the ability to compete with tritiated cGAMP ligand for human STING receptor membrane using a radioactive filter-binding assay. The binding assay employs STING receptor obtained from Hi-Five cell membranes overexpressing full-length HAQ STING prepared in-house and tritiated cGAMP ligand also purified in-house.
The ability of compounds to bind STING is quantified by their ability to compete with tritiated cGAMP ligand for human STING receptor membrane using a radioactive filter-binding assay. The binding assay employs STING receptor obtained from Trichoplusia ni cell membranes (T. ni; Expression Systems, cat #94-002F, www.expressionsystems.com) overexpressing full-length HAQ STING and tritiated cGAMP ligand.
The basic HAQ STING filtration assay protocol is as follows:
The compounds were serially titrated by the Hamilton STARPlus CORE in a 96-well plate (Greiner, #651201) using a 1:3 ten-point dose response format. After compound preparation, a 2.2 ug/ml working concentration of STING membrane (SEQ. ID. No. 1) was prepared by diluting concentrated membrane into assay buffer (lx PBS; Invitrogen #SH30028.02) and douncing 7× using a manual tissue homogenizer (Wheaton, #357546). 148 uL of prepared membrane was then manually added to each well of a 96-well deep-well polypropylene plate (Fisher Scientific, #12-566-121). Following membrane addition, 2 uL of either titrated test compound, DMSO control (Sigma #276855), or cold cGAMP control was added to the appropriate wells using a BIOMEK FX. Compound and membrane then preincubated for 60 min at RT to allow compound binding to equilibrate. Following equilibration, 8 nM of [^3H] c-GAMP ligand was prepared by diluting into assay buffer, and 50 uL of this working stock was then manually added to each well of the assay plate. Plates were then incubated at RT for 60 min, and the contents of each assay plate were then filtered through a 96-well GF/B filter plate (PerkinElmer, #6005250) using a TOMTEC MACH III Cell Harvester equipped with 20 mM HEPES buffer (Fisher Scientific, #BP299500). The filter plates were then dried at 55° C. for 30 min using a pressurized oven before 30 uL of ULTIMA GOLD F scintillate was added to each well. Tritium levels for each reaction well were then measured using a PerkinElmer TopCount plate reader.
After normalization to controls, the percent activity for each compound concentration was calculated by measuring the amount of remaining radioactivity. The plot of percent activity versus the log of compound concentration was fit with a 4-parameter dose response equation to calculate EC50 values.

Work on `COc1cc2nc(C(=O)CC(C)C(=O)O)sc2cc1OC` (single isomer, unassigned) [Example 2, 4-(5,6-Dimethoxy-1,3-benzothiazol-2-yl)-2-methyl-4-oxobutanoic Acid] yielded an activation at 30 µM [1] of 94% and an EC50 (full-length HAQ STING) of 3.29 µM.

Work on `COc1cc2sc(C(=O)CC(C)C(=O)O)cc2nc1OC` (single isomer, unassigned) [Example 7, (R or S)-4-(5,6-Dimethoxythieno[3,2-b]pyridin-2-yl)-2-methyl-4-oxobutanoic acid] yielded an activation at 30 µM [1] of 55% and an EC50 (full-length HAQ STING) of 8.76 µM.

`COc1cc2sc(C(=O)CC(C)C(=O)O)cc2nc1OC` (single isomer, unassigned) [Example 8, (R or S)-4-(5,6-Dimethoxythieno[3,2-b]pyridin-2-yl)-2-methyl-4-oxobutanoic acid] showed an EC50 (full-length HAQ STING) of 1.54 µM.

Work on `COc1cc2sc(C(=O)[C@H]3C[C@H]3C(=O)O)cc2nc1OC` (single isomer, unassigned) [Example 9, Cis-2-(5,6-dimethoxythieno[3,2-b]pyridine-2-carbonyl)cyclopropane-1-carboxylic Acid] yielded an activation at 30 µM [1] of 100% and an EC50 (full-length HAQ STING) of 1.15 µM.

Molecule `CCC(CC(=O)c1cc2nc(OC)c(OC)cc2s1)C(=O)O` (single isomer, unassigned) [Example 11, (R or S)-4-(5,6-Dimethoxythieno[3,2-b]pyridin-2-yl)-2-ethyl-4-oxobutanoic acid] has an EC50 (full-length HAQ STING) of 17.3 µM.

With `CCC(CC(=O)c1cc2nc(OC)c(OC)cc2s1)C(=O)O` (single isomer, unassigned) [Example 12, (R or S)-4-(5,6-Dimethoxythieno[3,2-b]pyridin-2-yl)-2-ethyl-4-oxobutanoic acid] the EC50 (full-length HAQ STING) was 1.75 µM.

`CCCC(CC(=O)c1cc2nc(OC)c(OC)cc2s1)C(=O)O` (single isomer, unassigned) [Example 13, (R or S)-2-(2-(5,6-Dimethoxythieno[3,2-b]pyridin-2-yl)-2-oxoethyl) pentanoic acid] was tested, and the “percent reduction in binding of tritiated cGAMP at top concentration” value (full-length HAQ STING; at 20,000 nM (20 uM) compound, HAQ STING) was 7% @ 20,000.

Work on `CCCC(CC(=O)c1cc2nc(OC)c(OC)cc2s1)C(=O)O` (single isomer, unassigned) [Example 14, (R or S)-2-(2-(5,6-Dimethoxythieno[3,2-b]pyridin-2-yl)-2-oxoethyl) pentanoic acid] yielded an EC50 (full-length HAQ STING) of 1.39 µM.

`CCC(CC(=O)c1cc2nc(OC)c(OC)nc2s1)C(=O)O` (single isomer, unassigned) [Example 17, (R or S)-4-(2,3-Dimethoxythieno[2,3-b]pyrazin-6-yl)-2-ethyl-4-oxobutanoic Acid] was tested, and the activation at 30 µM [1] was 116% and the EC50 (full-length HAQ STING) was 2.71 µM.

In the case of `COc1nc2cc(C(=O)CC(C)C(=O)O)sc2nc1OC` (single isomer, unassigned) [Example 18, (R or S)-4-(2,3-Dimethoxythieno[2,3-b]pyrazin-6-yl)-2-methyl-4-oxobutanoic Acid], the activation at 30 µM [1] is reported as 77% and the EC50 (full-length HAQ STING) is reported as 4.5 µM.

Work on `COc1cc2nc(C(=O)CCC(=O)O)sc2cc1OC` [Example 1, 4-(5,6-Dimethoxybenzo[d]thiazol-2-yl)-4-oxobutanoic Acid] yielded an activation at 30 µM [1] of 56% and an EC50 (full-length HAQ STING) of 13.3 µM.

Molecule `COc1cc2sc(C(=O)C[C@H](C)C(=O)O)nc2cc1Br` [Example 3, (S)-4-(5-Bromo-6-methoxybenzo[d]thiazol-2-yl)-2-methyl-4-oxobutanoic Acid] has an activation at 30 µM [1] of 11% and an EC50 (full-length HAQ STING) of 10.6 µM.

`COc1cc2sc(C(=O)CC(C)C(=O)O)nc2c(F)c1OC` (stereo not drawn) [Example 4, 4-(4-Fluoro-5,6-dimethoxybenzo[d]thiazol-2-yl)-2-methyl-4-oxobutanoic Acid] gave an activation at 30 µM [1] of 19% and an EC50 (full-length HAQ STING) of 6.79 µM.

`COc1cc2cc(C(=O)CCC(=O)O)sc2nc1OC` [Example 5, 4-(5,6-Dimethoxythieno[2,3-b]pyridin-2-yl)-4-oxobutanoic Acid] showed an activation at 30 µM [1] of 146% and an EC50 (full-length HAQ STING) of 5.51 µM.

In the case of `COc1cc2sc(C(=O)CCC(=O)O)cc2nc1OC` [Example 6], the activation at 30 µM [1] is reported as 107% and the EC50 (full-length HAQ STING) is reported as 2.44 µM.

With `COc1cc2sc(C(=O)C[C@H](C)C(=O)O)cc2nc1Cl` [Example 10, (S)-4-(5-Chloro-6-methoxythieno[3,2-b]pyridin-2-yl)-2-methyl-4-oxobutanoic Acid] the activation at 30 µM [1] was 70% and the EC50 (full-length HAQ STING) was 0.637 µM.

`COc1nc2cc(C(=O)CCC(=O)O)sc2cc1Br` [Example 15, 4-(6-Bromo-5-methoxythieno[3,2-b]pyridin-2-yl)-4-oxobutanoic Acid] showed an activation at 30 µM [1] of 142% and an EC50 (full-length HAQ STING) of 2.45 µM.

`COc1nc2cc(C(=O)CCC(=O)O)sc2nc1OC` [Example 16, 4-(2,3-Dimethoxythieno[2,3-b]pyrazin-6-yl)-4-oxobutanoic Acid] showed an activation at 30 µM [1] of 108% and an EC50 (full-length HAQ STING) of 9.57 µM.

`COc1cc2sc(C(=O)C[C@H](C)C(=O)O)nc2nc1OC` [Example 19, (S)-4-(5,6-Dimethoxythiazolo[4,5-b]pyridin-2-yl)-2-methyl-4-oxobutanoic Acid] gave an activation at 30 µM [1] of 14% and an EC50 (full-length HAQ STING) of 10.1 µM.
